Source: US11191811B2, “Osteocalcin as a treatment for frailty associated with aging” (THE TRUSTEES OF COLUMBIA UNIVERSITY IN THE CITY OF NEW YORK, priority 2014, dated 2021)

Columns and labels:
WT myotubes = assay: 14C-oleate (fatty acid) oxidation in myotubes; format: cell-based, mouse
Method: (§1) Glucose and insulin tolerance tests were performed as previously described (Lee et al., 2007, Cell 130:456-469). For in vivo glucose uptake, a bolus of 2-deoxy-d-[^3H]glucose (^3H-2-DG, Perkin Elmer) (10 μCi) was administered before an endurance run. ^3H-2-DG and ^3H-2-DG-6-P content in muscle was determined by liquid scintillation counter and normalized to muscle weight. Glucose uptake and fatty acid oxidation assays in myotubes were performed as previously described (Sebastian et al., 2007, Am. J. Physiol. Endocrinol. Metab. 292:E667-686). GLUT4 translocation was determined by flow cytometry using an antibody against the extracellular domain of the GLUT4 protein (Santa Cruz, Sc-1606). Measurements of oxygen consumption rates (OCR) in isolated myofibers were performed using a XF24 Seahorse Analyzer® (Seahorse Biosciences). To analyze mitochondrial function, myofibers were treated with three compounds in succession (oligomycin 10 μg/ml, FCCP 200 μM, rotenone 0.2 μM) and OCR was recorded following administration of each of them.
(§2) Culture of skeletal muscle myoblasts from 7 day-old mice was performed as described (Gharaibeh et al., 2008, Nature Protocols 3:1501-1509). Myoblasts were differentiated into myotubes for 3-4 days in a medium containing 5% horse serum. Muscle fibers were isolated from flexor digitorum brevis muscle. Muscles were dissected with DMEM 2% collagenase for 2 hours at 37° C., in a 5% CO2 incubator. Muscle fibers were disaggregated from the tissue using a wide bore pipet and plated in matrigel-coated plates at approximately 50% confluence. After overnight incubation, isolated myofibers were used.

Gprc6a−/− myotubes = assay: 14C-oleate (fatty acid) oxidation in myotubes; format: cell-based, mouse
Method: as §1, §2

C2C12 myoblasts = assay: GLUT4 translocation to the plasma membrane (flow cytometry); format: cell-based
Source text: Rather, it promoted the translocation of GLUT4 to the plasma membrane of C2C12 myoblasts that express both Gprc6a and Glut4. A similar increase in the accumulation of GLUT4 was observed after exercise in WT but not in Gprc6aMck−/− mice (FIG. 26I). Signaling through GPCRs can favor PI3K activation, leading to Akt phosphorylation, an event that favors the translocation of GLUT4 to the plasma membrane (Lopez-Ilasaca et al., 1997, Science 275:394-397). In agreement with this notion, Akt phosphorylation in muscles of Gprc6Mck−/− mice was decreased compared to muscles of control mice after exercise. […]
as §1, with “Glucose uptake and fatty acid oxidation assays in myotubes were performed as previously described (Sebastian et al., 2007, Am. J. Physiol. Endocrinol. Metab. 292:E667-686).” left out, “Measurements of oxygen consumption rates (OCR) in isolated myofibers were performed using a XF24 Seahorse Analyzer® (Seahorse Biosciences).” left out

wild-type = assay: Glycolysis, extracellular acidification rate (ECAR); format: cell-based, mouse; details: ECAR (FIG. 20); in muscle
Source text: FIG. 20. Osteocalcin favors glycolysis. (a) Effect of increasing amounts of uncarboxylated osteocalcin on change in extracellular acidification rate (ECAR) in wild-type mice. The effect of insulin is also shown for comparison. (B) Effect of uncarboxylated osteocalcin on ECAR of wild-type and Gprc6a^−/− mice. (C) L-lactate production in wild-type and Gprc6a^−/− mice.

uncarboxylated osteocalcin: Recombinant uncarboxylated mouse osteocalcin, bacterially produced, purified on glutathione beads and cleaved from the GST subunit by thrombin (YLGASVPSPDPLEPTREQCELNPACDELSDQYGLKTAYKRIYGITI)
14C-oleate oxidation (WT myotubes; WT myotubes): increase | fatty acid oxidation (WT myotubes; summary statement, in muscle): favors | 14C-oleate oxidation (Gprc6a−/− myotubes): could not increase | translocation of GLUT4 to the plasma membrane (C2C12 myoblasts): promoted | glycolysis (wild-type): favors
